Three compounds from US20230382916A1, “HETEROARYL HETEROCYCLIC COMPOUNDS AND USES THEREOF” (HUTCHISON MEDIPHARMA LIMITED, priority 2020, published 2023) can be followed below.

For one assay, the target named is BTK recombinant protein (Homo sapiens (Human), UniProt Q06187). Nature of the assay: Determination of biochemical BTK (Z'-LYTE kinase assay). The settings on record: 32 μM ATP. An excerpt: BTK recombinant protein: Invitrogen, Cat #PV3363;
Z′-LYTE® kinase test kit-tyrosine 1 peptide: Invitrogen, Cat #PV3190;
Z′-LYTE® biochemical assay employs a fluorescence resonance energy transfer (FRET)-based, coupled-enzyme format and is based on the differential sensitivity of phosphorylated and non-phosphorylated peptides to proteolytic cleavage. Both ends of the short peptide substrate are labeled with two fluorescent groups to form a FRET paired combination. In the primary reaction (the Kinase Reaction), the kinase transfers the γ-phosphate of ATP to a single […] residue on the short peptide substrate. In the secondary reaction (the development reaction), the non-phosphorylated short peptides were recognized and cleaved by a site-specific protease (the development reagent). Phosphorylated short peptides can resist such cleavage. Cleavage of short peptides can disrupt the donor (such as coumarin) and receptor fluorophores (fluorescein) on the short peptides, while the phosphorylated short peptides can maintain FRET. The calculation method of the ratio is as follows, and the ratio of the respective emission signals generated by the donor fluorophores emitted (after excitation at 400 nm) to the receptors is calculated. Emission signal ratio=emitted light by coumarin (445 nm)/emitted light by fluorescein (520 nm). If the FRET short peptide is phosphorylated (such as no kinase inhibitor), the emitted light ratio will remain in a lower level. If the FRET short peptide is non-phosphorylated (such as kinase inhibitor), the emitted light ratio will be in a higher level. In this way, the inhibitory effects of different compound inhibitors on BTK kinase activity would be distinguished.
The experiment was carried out according to the instructions of the Z′-LYTE® kinase test kit-tyrosine 1 peptide. Reagent preparation: 1.33× kinase buffer: 5× kinase buffer was diluted with water to 1.33× kinase buffer; an enzyme solution: the kinase was dissolved in 1.33× kinase buffer with the final working concentration being 3.32 nM; a short peptide solution: a short peptide stock solution (1 mM dissolved in DMSO) was dissolved in 1.33× kinase buffer with the final working concentration being 2 μM; Z′-LYTE Tyr01 phosphorylated short peptide solution, 0.6 μl of stock solution (1 mM dissolved in DMSO) was dissolved in 149.4 μl of 1.33× kinase buffer; an ATP solution: an ATP stock solution (10 mM aqueous solution) was dissolved in 1.33× kinase buffer with the final working concentration being 32 μM; a color-developing solution: color-developing solution B was dissolved in color-developing buffer with the final working concentration being 1× color-developing solution; 4× compound preparation: the compound was diluted in 3-fold gradient concentration to finally obtain 4% DMSO aqueous solution containing different concentrations of the compound, with the final working concentration being 3000, 1000, 333.33, 111.11, 37.04, 12.35, 4.12, 1.37 nM, 8 concentration points in total.
Specific steps of the experiment: In the experiment, there were three control groups, each with 8 replicate wells, which were C1 100% inhibition group (no ATP), C2 0% inhibition group (with ATP), and C3 100% phosphorylation group, respectively. 2.5 μl of serially diluted compound was added to each well of a 384-well plate, with double replicate wells, and 4% DMSO solution was added to wells C1, C2, and C3. After that, except for wells C3, 2.5 μl of BTK enzyme solution was added to each remaining well, which was left to stand at 4° C. for 30 minutes. After that, except for wells C3, 2.5 μl of short peptide solution was added to each well, and 5 μl of phosphorylated short peptide solution was added to each of wells C3. 2.5 μl of 1.33× kinase buffer was added to each of wells C1 and C3, and 2.5 μl of ATP solution was added to each of the remaining wells. The wells were centrifuged transiently, and the plate was shaken at 1000 rpm for 30 seconds to perform transient centrifuge. […]

The test system of assay [1] is idiopathic thrombocytopenic purpura induced by anti-mouse CD41 antibodies. Nature of the assay: Idiopathic thrombocytopenic purpura induced by anti-CD41 antibody in mice, level of platelets. In kind it is in vivo. The settings on record: 40 mg/kg oral single dose. The method, then: Male C57BL/6 mice were purchased from Shanghai Lingchang Biotechnology Co., Ltd. (certificate number 20180003011079, initial body weight of 18-20 grams), and were randomly grouped according to Table 4, with 8 mice in each group. […] When modeling, each mouse was intraperitoneally injected with 200 μL of PBS solution containing […] of anti-mouse CD41 antibodies (BD, Cat #: 553487, Lot #: 7026765).
Eight hours and twenty-four hours after modeling, the whole blood was collected and placed in a centrifuge tube coated with 10% citrate-phosphate-dextrose-adenine (CPDA), and the level of platelets (PLT) in the whole blood was measured by an XT-2000i (SYSMEX) automatic blood analyzer (Shanghai Laboratory Animal Research Centre Sino-British SIPPR/B & K Lab Animal Ltd).
The average level of platelets in peripheral blood was analyzed with Graphpad statistical software by one way ANOVA followed by Fisher LSD multiple comparison test, and the p value was calculated, wherein *p<0.05 indicated a statistically significant difference compared with the vehicle control group, **p<0.01 indicated a statistically extremely significant difference compared with the vehicle control group, and ##p<0.01 indicated a statistically extremely significant difference compared with the normal group.
RR %=(PLTtreatment−PLTmodel)/(PLTnaive−PLTmodel)×100%.

Chain of BTK recombinant protein (Q06187 whole entry): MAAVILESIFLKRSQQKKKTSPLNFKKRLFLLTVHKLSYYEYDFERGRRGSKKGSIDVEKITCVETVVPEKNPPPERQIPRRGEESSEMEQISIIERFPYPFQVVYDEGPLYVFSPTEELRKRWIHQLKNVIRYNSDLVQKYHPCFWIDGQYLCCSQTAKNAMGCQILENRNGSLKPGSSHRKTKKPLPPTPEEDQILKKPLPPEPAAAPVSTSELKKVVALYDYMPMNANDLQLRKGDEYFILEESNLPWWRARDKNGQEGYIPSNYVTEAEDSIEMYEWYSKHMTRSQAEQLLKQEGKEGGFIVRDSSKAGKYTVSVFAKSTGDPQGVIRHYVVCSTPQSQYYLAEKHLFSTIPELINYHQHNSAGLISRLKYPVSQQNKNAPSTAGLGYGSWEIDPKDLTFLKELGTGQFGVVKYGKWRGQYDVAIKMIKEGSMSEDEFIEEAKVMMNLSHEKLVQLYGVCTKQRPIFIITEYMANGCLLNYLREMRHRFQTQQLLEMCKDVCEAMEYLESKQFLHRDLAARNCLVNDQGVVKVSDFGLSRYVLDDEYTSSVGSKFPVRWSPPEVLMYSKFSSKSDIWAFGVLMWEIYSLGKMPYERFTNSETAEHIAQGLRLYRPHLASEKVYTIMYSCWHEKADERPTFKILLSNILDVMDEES

As usually defined, the IC50 is the midpoint of a concentration-inhibition curve. On to `C[C@H]1CN(C2COC2)C[C@H](C)N1c1ccc(Nc2cc(-c3ccnc(-n4ccn5c6c(c(F)c5c4=O)CCCC6)c3CO)cn(C)c2=O)nc1` [Compound 3], for which the IC50 on BTK recombinant protein amounted to 3 nM.
Regarding `C[C@H]1CN(C)C[C@H](C)N1c1ccc(Nc2cc(-c3ccnc(-n4ccn5c6c(cc5c4=O)CC(C)(C)C6)c3CO)cn(C)c2=O)nc1` [Compound 6, 2-(3′-(hydroxymethyl)-1-methyl-6-oxo-5-((5-((2S,6S)-2,4,6-trimethylpiperazin-1-yl)pyridin-2-yl)amino)-1,6-dihydro-[3,4′-bipyridin]-2′-yl)-7,7-dimethyl-7,8-dihydro-2H-cyclopenta[4,5]pyrrolo[1,2-a]pyrazin-1(6H)-one], on BTK recombinant protein, the IC50 worked out at 7 nM.
On to `CC(C)(/C=C(\C#N)C(=O)N1CCC[C@@H](n2nc(-c3ccc(Oc4ccccc4)cc3F)c3c(N)ncnc32)C1)N1CCN(C2COC2)CC1` [PRN1008, rilzabrutinib, reference compound], for which the “recovery rate of platelets” value is listed as 40% in assay [1] (8 hours after modeling) and 16% in assay [1] (24 hours after modeling).
